The values below come from patent US9426991B2, “Synergistic weed control from applications of aminocyclopyrachlor and picloram” (Dow AgroSciences LLC, priority 2012, dated 2016).

SMILES strings stand for the structures.

The subject of the assay is broomweed (Sida acuta, SIDAC). As to the kind of experiment: Field trial, post-emergence foliar application, weed control rating 0-100%. In kind it is in vivo. Conditions: for Aminocyclopyrachlor Mean % weed control: 150 g ae/ha alone; for Picloram-Potassium Mean % weed control: 180 g ae/ha alone. An excerpt:
The (a) aminocyclopyrachloror an agriculturally acceptable salt or ester thereof is mixed with or applied in combination with (b) picloram or an agriculturally acceptable salt or ester thereof in an amount sufficient to induce a synergistic herbicidal effect. […] As described in the Herbicide Handbook of the Weed Science Society of America, Ninth Edition, 2007, p. 429, “‘synergism’ [is] an interaction of two or more factors such that the effect when combined is greater than the predicted effect based on the response to each factor applied separately.” Synergistic in the herbicide context can mean that the use of (a) and (b) as defined above results in an increased weed control effect compared to the weed control effects that are possible with the use of (a) or (b) alone. In some embodiments, the damage or injury to the undesired vegetation caused by the compositions and methods disclosed herein is evaluated using a scale from 0% to 100%, when compared with the untreated control vegetation, wherein 0% indicates no damage to the undesired vegetation and 100% indicates complete destruction of the undesired vegetation. […] 22 (1967)
Field trials were conducted with applications made to established grassland with naturally occurring weed populations. The target plants were treated with postemergence foliar applications when they were at the beginning of the flowering stage and 30 centimeters (11.8 inches) tall. All treatments were applied using a randomized complete block trial design, with four replications per treatment.
Treatments consisted of aminocyclopyrachlor in acid form and picloram-potassium, each in water and applied alone or in combination. Spray solutions were prepared using an appropriate amount of dilution to form a 2.0-liter (L) aqueous spray solution with active ingredients in single and two-way combinations. Formulated compounds were applied to the plant material with a backpack sprayer equipped with 8003 nozzles calibrated to deliver 400 liters per hectare (L/ha) at a spray height of 18-20 in (45-51 cm) above average plant canopy.
The treated plant was broomweed (Sida acuta, SIDAC). The treated plots and control plots were rated blind at various intervals after application. Ratings were based on a scale of 0-100%, as discussed above, wherein 0% indicates no damage to the undesired vegetation and 100% indicates complete destruction of the undesired vegetation
Colby's equation was used to determine the herbicidal effects expected from the mixtures, as described above. The results were measured at 59 days, 75 days, and 88 days after the first application of the compositions. […] The herbicide tank mix combinations tested, application rates and ratios employed, plant species tested, and results are given below.

As for `Nc1nc(C2CC2)nc(C(=O)O)c1Cl` [Aminocyclopyrachlor, 6-amino-5-chloro-2-cyclopropylpyrimidine-4-carboxylic acid], the “Aminocyclopyrachlor Mean % weed control” value runs as follows: (59 days after application) 42.5%; (75 days after application) 36.3%; (88 days after application) 41.3%.

On to `Nc1c(Cl)c(Cl)nc(C(=O)O)c1Cl` [Picloram-Potassium, 4-amino-3,5,6-trichloro-2-pyridinecarboxylic acid], for which the “Picloram-Potassium Mean % weed control” value by setting is: (59 days after application) 6.3%; (75 days after application) 3.8%; (88 days after application) 5.5%.
